Experimental data from US20260124192A1, “COMPOUNDS, COMPOSITIONS, AND METHODS OF TREATING RNA VIRAL INFECTIONS” (priority 2024, published 2026).

Tested on: CoV229E
Test: Anti-Coronavirus 229E cytoprotection (CPE) assay, MRC-5 (Method 3)
Type: cell-based, human Coronavirus 229E
Conditions: @ 1.58 μM; MRC-5
With `Cc1c(-c2ccc(O)cc2)n(Cc2ccc(OCCC3CCCCC3)cc2)c2ccc(O)cc12` [MCAA-04] the “CoV229E - percent effect” value was 25% @.

Same assay, conditions: @ 5 μM; MRC-5
With `O=C(O)c1ccc(-c2c(CC3CCCC3)c3ccc(F)cc3n2Cc2ccc(OCCC3CCCCC3)cc2)cc1` [MCAA-03] the “CoV229E - percent effect” value was 24% @.
For `Fc1ccc(-c2cc3sccc3n2Cc2ccc(OCCC3CCCCC3)cc2)cc1` [MCAA-07], the “CoV229E - percent effect” value was 11% @.
In the case of `Nc1cccc2nc(-c3ccc(F)cc3)n(Cc3ccc(OCCN4CCCCC4)cc3)c12` [MCAA-08], the “CoV229E - percent effect” value is reported as 33% @.
In the case of `Nc1cccc2nc(-c3ccc(F)cc3)n(Cc3ccc(OCCC4CCCCC4)cc3)c12` [MCAA-09], the “CoV229E - percent effect” value is reported as 13% @.
With `O=[N+]([O-])c1cccc2nc(-c3ccc(F)cc3)n(Cc3ccc(OCCC4CCCCC4)cc3)c12` [MCAA-14] the “CoV229E - percent effect” value was 31% @.

Same assay, conditions: Human coronavirus 229E, MRC5, […], read-out: CoV229E - EC50 (μM)
`CCC(CC)COC(=O)[C@H](C)N[P@](=O)(OC[C@H]1O[C@@](C#N)(c2ccc3c(N)ncnn23)[C@H](O)[C@@H]1O)Oc1ccccc1` [Remdesivir, reference compound] gave an EC50 of 0.14 µM.

Same assay, conditions: Human coronavirus 229E, MRC5, […], read-out: CoV229E - EC50 (μM), MRC-5; XTT cytoprotection; six days
`O=C(O)c1ccc(-c2c(CC3CCCC3)c3ccc(F)cc3n2Cc2ccc(OCCN3CCCCC3)cc2)cc1` [MCAA-02] gave an EC50 of 2.78 µM.
For `COc1ccc(-c2c(Cc3ccc(OCCC4CCCCC4)cc3)c3ccc(OC)cc3n2C)cc1` [MCAA-05], the EC50 was greater than 5 µM.

Tested on: HCV genotype 1b replicon
Test: microbe, parasite or virus in culture
Type: cell-based, Hepatitis C Virus
Conditions: @ 10 μM; Huh-luc/neo-ET replicon
With `Fc1ccc(-c2cc3sccc3n2Cc2ccc(OCCC3CCCCC3)cc2)cc1` [MCAA-07] the “HCV 1b - percent effect” value was 30% @.
In the case of `O=[N+]([O-])c1cccc2nc(-c3ccc(F)cc3)n(Cc3ccc(OCCC4CCCCC4)cc3)c12` [MCAA-14], the “HCV 1b - percent effect” value is reported as 34% @.

Same assay, conditions: Hepatitis C virus; Huh-luc/neo-ET replicon; 72 hours; luciferase; read-out: HCV 1b - EC50
For `O=C(O)c1ccc(-c2c(CC3CCCC3)c3ccc(F)cc3n2Cc2ccc(OCCN3CCCCC3)cc2)cc1` [MCAA-02], the EC50 was greater than 10 µM.
In the case of `O=C(O)c1ccc(-c2c(CC3CCCC3)c3ccc(F)cc3n2Cc2ccc(OCCC3CCCCC3)cc2)cc1` [MCAA-03], the EC50 is reported as 8.43 µM.
Work on `Cc1c(-c2ccc(O)cc2)n(Cc2ccc(OCCC3CCCCC3)cc2)c2ccc(O)cc12` [MCAA-04] yielded an EC50 greater than 10 µM.
With `COc1ccc(-c2c(Cc3ccc(OCCC4CCCCC4)cc3)c3ccc(OC)cc3n2C)cc1` [MCAA-05] the EC50 was greater than 10 µM.
For `Nc1cccc2nc(-c3ccc(F)cc3)n(Cc3ccc(OCCN4CCCCC4)cc3)c12` [MCAA-08], the EC50 was 9.59 µM.
`Nc1cccc2nc(-c3ccc(F)cc3)n(Cc3ccc(OCCC4CCCCC4)cc3)c12` [MCAA-09] showed an EC50 greater than 10 µM.

Tested on: not listed separately
Test: XTT cell viability assay, Huh-luc/neo-ET
Type: cell-based
Conditions: human, Huh-luc/neo-ET cells, XTT, 72 hours, read-out: HCV 1b - TC50
Method: Twenty-four hours after seeding the cells, the cell culture supernatant was removed from each well and replaced with 175 μL fresh complete medium minus G418. Test compounds were evaluated at a high-test concentration of 10 μM and five serial half-logarithmic dilutions in three biological replicates. In three biological replicates, Sofosbuvir was evaluated in parallel at a high-test concentration of 1 μM and five serial half-logarithmic dilutions. Compounds were first serially diluted in DMSO to 400× of each final in-well concentration. An intermediate 8× solution was prepared in a complete medium and then added to the cells in a volume of 25 μL per well. A complete medium containing an equal percentage of DMSO (v/v) was added to vehicle-treated control cells. The final DMSO concentration was 0.25% (v/v) for all samples. The cells were incubated for an additional 72 hours at 37° C./5% CO2, then HCV replication was measured by luciferase activity and cell viability was assessed in parallel using an XTT colorimetric assay.
Huh-luc/neo-ET cell viability was measured at 72 hours after treatment using the tetrazolium dye XTT (2,3-bis(2-methoxy-4-nitro-5-sulfophenyI)-5[(phenylamino)carbonyl]-2H-tetrazolium hydroxide). Mitochondrial enzymes of metabolically active cells metabolize XTT-tetrazolium to a soluble formazan product. XTT solution was prepared fresh at 1 mg/mL in DMEM. Phenazine methosulfate (PMS) solution was prepared at 0.15 mg/mL in PBS and stored in the dark at −20° C. An XTT/PMS stock was prepared immediately before use by adding 40 μL of PMS per ml of XTT solution. Fifty microliters (50 μL) XTT/PMS were added per well, and the cells were incubated for 4 hours at 37° C. The cell culture plates were then sealed with adhesive plate sealers and shaken gently or inverted several times to mix the soluble formazan product. The formazan product was measured spectrophotometrically by absorbance at 450/650 nm on a Vmax plate reader (Molecular Devices). The raw data in Softmax Pro 5.4.2 software was imported into Microsoft Excel for further analysis. Data are presented as absorbance values (450/650 nm) or the percentage of viable cells relative to vehicle-treated control (mean+1—standard deviation, n=3 biological replicates from one independent experiment).
For `O=C(O)c1ccc(-c2c(CC3CCCC3)c3ccc(F)cc3n2Cc2ccc(OCCN3CCCCC3)cc2)cc1` [MCAA-02], the CC50 at 72 h was greater than 10 µM.
For `O=C(O)c1ccc(-c2c(CC3CCCC3)c3ccc(F)cc3n2Cc2ccc(OCCC3CCCCC3)cc2)cc1` [MCAA-03], the CC50 at 72 h was greater than 10 µM.
Molecule `Cc1c(-c2ccc(O)cc2)n(Cc2ccc(OCCC3CCCCC3)cc2)c2ccc(O)cc12` [MCAA-04] has a CC50 at 72 h greater than 10 µM.
Molecule `COc1ccc(-c2c(Cc3ccc(OCCC4CCCCC4)cc3)c3ccc(OC)cc3n2C)cc1` [MCAA-05] has a CC50 at 72 h greater than 10 µM.
With `Fc1ccc(-c2cc3sccc3n2Cc2ccc(OCCC3CCCCC3)cc2)cc1` [MCAA-07] the CC50 at 72 h was greater than 10 µM.
In the case of `Nc1cccc2nc(-c3ccc(F)cc3)n(Cc3ccc(OCCN4CCCCC4)cc3)c12` [MCAA-08], the CC50 at 72 h is reported as greater than 10 µM.
For `Nc1cccc2nc(-c3ccc(F)cc3)n(Cc3ccc(OCCC4CCCCC4)cc3)c12` [MCAA-09], the CC50 at 72 h was greater than 10 µM.
Work on `O=[N+]([O-])c1cccc2nc(-c3ccc(F)cc3)n(Cc3ccc(OCCC4CCCCC4)cc3)c12` [MCAA-14] yielded a CC50 at 72 h greater than 10 µM.

Tested on: MCF7 wild-type cell lines
Test: MCF7 growth inhibition assay (Cell Titre Glo 2.0)
Type: cell-based
Conditions: Homo sapiens; MCF7 growth inhibition; 120 hours; read-out: MCF-7 IC50
Method: The growth inhibition properties of inhibitors on MCF7 wild-type cell lines were evaluated using the Cell Titre Glo 2.0 cell viability reagent. The assay utilized 384-well black clear bottom plates with 20 μl of MCF7 wild-type cell suspension mixed with reference/test compounds and 20 μl of Cell Titre Glo 2.0 reagent. Cells were seeded at a density of 1000 cells/well in DMEM High Glucose culture media+10% Fetal Bovine Serum (FBS). Staurosporine and Camptothecin served as positive controls for confirming cytotoxicity at a concentration of 30 μM, and vehicle control of 1% DMSO was used to standardize conditions across all test points. The assay and culture media both contained 1% DMSO. Assays were conducted in duplicate for each concentration of the test compounds. The incubation period for the assay was set at 120 hours, after which growth inhibition was assessed. Using a multi-mode reader, the assay readout was based on luminescence measured in Relative Light Units (RLUs). The viability luminescence signal was monitored continually from the same wells over an extended period, allowing for detailed analysis of cell viability. Measurements were taken using an integration time ranging from 0.25 to 1 second across plates designated for various time points.
Cells were maintained and seeded in 384 […] plates, maintaining 1000 cells/well. Seeded plates were incubated at 37° C., 5% CO2 for 16-18 hours to ensure optimal cell adherence and growth. Post-incubation, reference, and test compounds were added carefully to the wells for further processing. Plates were incubated again at 37° C., 5% CO2 for 120 hours (5 days) to allow compound effects. This was followed by the addition of CTG reagent as per the kit's instruction protocol for 30 minutes and RLU data to be recorded. Post plate read data to be analyzed using GraphPad Prism for software IC50 value generation.
Next, the NCEs were tested for selective estrogen regulation modulation activity by using a growth inhibition assay. The assay is performed on MCF7 cells, which are derived from a hormone-dependent breast cancer that stops growing upon estrogen receptor inhibition. […] Staurosporine and Camptothecin served as positive controls for cytotoxicity and 1% DMSO as the vehicle control.
In the case of `O=C(O)c1ccc(-c2c(CC3CCCC3)c3ccc(F)cc3n2Cc2ccc(OCCN3CCCCC3)cc2)cc1` [MCAA-02], the IC50 is reported as greater than 10 µM.
Molecule `O=C(O)c1ccc(-c2c(CC3CCCC3)c3ccc(F)cc3n2Cc2ccc(OCCC3CCCCC3)cc2)cc1` [MCAA-03] has an IC50 greater than 10 µM.
With `Cc1c(-c2ccc(O)cc2)n(Cc2ccc(OCCC3CCCCC3)cc2)c2ccc(O)cc12` [MCAA-04] the IC50 was 2.24 µM.
Work on `COc1ccc(-c2c(Cc3ccc(OCCC4CCCCC4)cc3)c3ccc(OC)cc3n2C)cc1` [MCAA-05] yielded an IC50 greater than 10 µM.
For `Fc1ccc(-c2cc3sccc3n2Cc2ccc(OCCC3CCCCC3)cc2)cc1` [MCAA-07], the IC50 was greater than 10 µM.
`Nc1cccc2nc(-c3ccc(F)cc3)n(Cc3ccc(OCCN4CCCCC4)cc3)c12` [MCAA-08] showed an IC50 greater than 10 µM.
Molecule `Nc1cccc2nc(-c3ccc(F)cc3)n(Cc3ccc(OCCC4CCCCC4)cc3)c12` [MCAA-09] has an IC50 of 1.21 µM.
Work on `O=[N+]([O-])c1cccc2nc(-c3ccc(F)cc3)n(Cc3ccc(OCCC4CCCCC4)cc3)c12` [MCAA-14] yielded an IC50 of 4.38 µM.

Tested on: not listed separately
Test: Cytotoxicity, XTT, MRC-5
Conditions: human
`O=C(O)c1ccc(-c2c(CC3CCCC3)c3ccc(F)cc3n2Cc2ccc(OCCN3CCCCC3)cc2)cc1` [MCAA-02] gave a CC50 at 6 days greater than 5 µM.
`O=C(O)c1ccc(-c2c(CC3CCCC3)c3ccc(F)cc3n2Cc2ccc(OCCC3CCCCC3)cc2)cc1` [MCAA-03] gave a CC50 at 6 days of 2.47 µM.
For `Cc1c(-c2ccc(O)cc2)n(Cc2ccc(OCCC3CCCCC3)cc2)c2ccc(O)cc12` [MCAA-04], the CC50 at 6 days was 2.7 µM.
With `COc1ccc(-c2c(Cc3ccc(OCCC4CCCCC4)cc3)c3ccc(OC)cc3n2C)cc1` [MCAA-05] the CC50 at 6 days was greater than 5 µM.
`Fc1ccc(-c2cc3sccc3n2Cc2ccc(OCCC3CCCCC3)cc2)cc1` [MCAA-07] gave a CC50 at 6 days greater than 5 µM.
`Nc1cccc2nc(-c3ccc(F)cc3)n(Cc3ccc(OCCN4CCCCC4)cc3)c12` [MCAA-08] gave a CC50 at 6 days greater than 5 µM.
`Nc1cccc2nc(-c3ccc(F)cc3)n(Cc3ccc(OCCC4CCCCC4)cc3)c12` [MCAA-09] gave a CC50 at 6 days greater than 5 µM.
In the case of `O=[N+]([O-])c1cccc2nc(-c3ccc(F)cc3)n(Cc3ccc(OCCC4CCCCC4)cc3)c12` [MCAA-14], the CC50 at 6 days is reported as greater than 5 µM.
With `CCC(CC)COC(=O)[C@H](C)N[P@](=O)(OC[C@H]1O[C@@](C#N)(c2ccc3c(N)ncnn23)[C@H](O)[C@@H]1O)Oc1ccccc1` [Remdesivir, reference compound] the CC50 at 6 days was greater than 1 µM.
